From US20220401589A1, “PRE-TARGETING IMAGING AGENTS” (Eli Lilly and Company, priority 2019, published 2022)
One block for each compound: values may come before it.

Experiments:
[1] = Reduction of tetrazine moiety by ascorbate formulation; format: physicochemical
Description: In another aspect the present embodiments provide a pharmaceutical composition comprising Compound 1 or Compound 2, or pharmaceutically acceptable salt thereof, which is formulated in ethanol (such as, for example 10% EtOH (v/v)) and buffer (which may be PBS buffer), preferably for use in humans. […] Thus, although ascorbate formulation is readily used in many formulations for imaging, it may not be suitable for imaging with the compounds of Formula I or Formula II.

[2] = Dynamic PET-CT imaging, tracer uptake in brain, muscle and bone; format: in vivo, Male CD-1 mice; details: for Bone Mean / Brain Mean / Muscle Mean: 60 minute PET scan
Procedure: PET-CT imaging of [^18F]—N-(4-(1,2,4,5-tetrazin-3-yl)benzyl)-4-fluorobenzamide
A Siemens Inveon® Multimodality Scanner (Siemens, Germany) is used for micro PET/CT imaging. Male CD-1 (6-week-old, ˜30 g) mice are anesthetized with 3% isoflurane/97% oxygen and placed on the bed of the scanner. The mice are administered [^18F]—N-(4-(1,2,4,5-tetrazin-3-yl)benzyl)-4-fluorobenzamide via a bolus intravenous tail vein injection (˜[…] in a total volume of 200 μL saline). A total of six (four 60 min and two 90 min) dynamic PET scans are conducted, followed by a short high-resolution CT scan for anatomical registration. PET images are generated for each minute of the acquisition time. Uptake of the tracer in the brain, muscle, and bone are determined by visually drawing regions of interest (ROIs) based on the fused PET/CT images and the corresponding activity values are determined using the Inveon® Research Workplace software. All values are represented as % injected dose per gram (% ID/g).
Bone uptake throughout the scan period remained low, consistent with an absence of defluorination for this tracer. Results of the 90 min scans are similar to the 60 min scan results with peak brain uptake observed at 3.4% ID/g at 2.5 min post injection followed by an immediate wash out to 0.6% ID/g by 59.5 min. Residual uptake is also observed throughout the body of the mouse. Time activity curves are generated for [^18F]—N-(4-(1,2,4,5-tetrazin-3-yl)benzyl)-4-fluorobenzamide in CD-1 male mice (n=4). Data is shown in graphical format in FIGS. 1A and 1B and in tabular format below.

reduction of the tetrazine moiety [1]: readily reduced
SMILES: O=C(NCc1ccc(-c2nncnn2)cc1)c1ccc(F)cc1 [Compound 1, N-(4-(1,2,4,5-tetrazin-3-yl)benzyl)-4-fluorobenzamide]

reduction of the tetrazine moiety [1]: readily reduced | Bone Mean ([2]; time 2.5 min): 1.28 % ID/g | Brain Mean ([2]; time 2.5 min): 4.06 % ID/g | Muscle Mean ([2]; time 2.5 min): 1.14 % ID/g | Bone Mean ([2]; time 3.5 min): 1.09 % ID/g | Brain Mean ([2]; time 3.5 min): 3.70 % ID/g | Muscle Mean ([2]; time 3.5 min): 1.13 % ID/g | Bone Mean ([2]; time 4.5 min): 1.04 % ID/g | Brain Mean ([2]; time 4.5 min): 3.36 % ID/g | Muscle Mean ([2]; time 4.5 min): 1.15 % ID/g | Bone Mean ([2]; time 5.5 min): 1.01 % ID/g | Brain Mean ([2]; time 5.5 min): 3.20 % ID/g | Muscle Mean ([2]; time 5.5 min): 1.17 % ID/g | Bone Mean ([2]; time 6.5 min): 1.07 % ID/g | Brain Mean ([2]; time 6.5 min): 3.01 % ID/g | Muscle Mean ([2]; time 6.5 min): 1.10 % ID/g | Bone Mean ([2]; time 7.5 min): 1.12 % ID/g | Brain Mean ([2]; time 7.5 min): 2.81 % ID/g | Muscle Mean ([2]; time 7.5 min): 1.11 % ID/g | Bone Mean ([2]; time 8.5 min): 1.04 % ID/g | Brain Mean ([2]; time 8.5 min): 2.62 % ID/g | Muscle Mean ([2]; time 8.5 min): 1.15 % ID/g | Bone Mean ([2]; time 9.5 min): 0.97 % ID/g | Brain Mean ([2]; time 9.5 min): 2.46 % ID/g | Muscle Mean ([2]; time 9.5 min): 1.09 % ID/g | Bone Mean ([2]; time 10.5 min): 1.03 % ID/g | Brain Mean ([2]; time 10.5 min): 2.32 % ID/g | Muscle Mean ([2]; time 10.5 min): 1.09 % ID/g | Bone Mean ([2]; time 11.5 min): 1.01 % ID/g | Brain Mean ([2]; time 11.5 min): 2.17 % ID/g | Muscle Mean ([2]; time 11.5 min): 1.08 % ID/g | Bone Mean ([2]; time 12.5 min): 0.93 % ID/g | Brain Mean ([2]; time 12.5 min): 2.07 % ID/g | Muscle Mean ([2]; time 12.5 min): 1.06 % ID/g | Bone Mean ([2]; time 13.5 min): 0.96 % ID/g | Brain Mean ([2]; time 13.5 min): 1.97 % ID/g | Muscle Mean ([2]; time 13.5 min): 1.06 % ID/g | Bone Mean ([2]; time 14.5 min): 0.78 % ID/g | Brain Mean ([2]; time 14.5 min): 1.88 % ID/g | Muscle Mean ([2]; time 14.5 min): 1.00 % ID/g | Bone Mean ([2]; time 15.5 min): 0.89 % ID/g | Brain Mean ([2]; time 15.5 min): 1.79 % ID/g | Muscle Mean ([2]; time 15.5 min): 1.02 % ID/g | Bone Mean ([2]; time 16.5 min): 0.96 % ID/g | Brain Mean ([2]; time 16.5 min): 1.70 % ID/g | Muscle Mean ([2]; time 16.5 min): 1.02 % ID/g | Bone Mean ([2]; time 17.5 min): 0.87 % ID/g | Brain Mean ([2]; time 17.5 min): 1.64 % ID/g | Muscle Mean ([2]; time 17.5 min): 1.03 % ID/g | Bone Mean ([2]; time 18.5 min): 0.92 % ID/g | Brain Mean ([2]; time 18.5 min): 1.58 % ID/g | Muscle Mean ([2]; time 18.5 min): 1.05 % ID/g | Bone Mean ([2]; time 19.5 min): 0.93 % ID/g | Brain Mean ([2]; time 19.5 min): 1.52 % ID/g | Muscle Mean ([2]; time 19.5 min): 0.94 % ID/g | Bone Mean ([2]; time 20.5 min): 1.01 % ID/g | Brain Mean ([2]; time 20.5 min): 1.47 % ID/g | Muscle Mean ([2]; time 20.5 min): 0.95 % ID/g | Bone Mean ([2]; time 21.5 min): 0.88 % ID/g | Brain Mean ([2]; time 21.5 min): 1.42 % ID/g | Muscle Mean ([2]; time 21.5 min): 1.06 % ID/g | Bone Mean ([2]; time 22.5 min): 0.99 % ID/g | Brain Mean ([2]; time 22.5 min): 1.38 % ID/g | Muscle Mean ([2]; time 22.5 min): 1.04 % ID/g | Bone Mean ([2]; time 23.5 min): 0.85 % ID/g | Brain Mean ([2]; time 23.5 min): 1.33 % ID/g | Muscle Mean ([2]; time 23.5 min): 0.92 % ID/g | Bone Mean ([2]; time 24.5 min): 0.88 % ID/g | Brain Mean ([2]; time 24.5 min): 1.29 % ID/g | Muscle Mean ([2]; time 24.5 min): 0.96 % ID/g | Bone Mean ([2]; time 25.5 min): 1.02 % ID/g | Brain Mean ([2]; time 25.5 min): 1.26 % ID/g | Muscle Mean ([2]; time 25.5 min): 0.97 % ID/g | Bone Mean ([2]; time 26.5 min): 0.88 % ID/g | Brain Mean ([2]; time 26.5 min): 1.23 % ID/g | Muscle Mean ([2]; time 26.5 min): 0.92 % ID/g | Bone Mean ([2]; time 27.5 min): 0.83 % ID/g | Brain Mean ([2]; time 27.5 min): 1.18 % ID/g | Muscle Mean ([2]; time 27.5 min): 0.89 % ID/g | Bone Mean ([2]; time 28.5 min): 0.92 % ID/g | Brain Mean ([2]; time 28.5 min): 1.17 % ID/g | Muscle Mean ([2]; time 28.5 min): 0.91 % ID/g | Bone Mean ([2]; time 29.5 min): 0.93 % ID/g | Brain Mean ([2]; time 29.5 min): 1.14 % ID/g | Muscle Mean ([2]; time 29.5 min): 0.94 % ID/g | Bone Mean ([2]; time 30.5 min): 0.92 % ID/g | Brain Mean ([2]; time 30.5 min): 1.11 % ID/g | Muscle Mean ([2]; time 30.5 min): 0.93 % ID/g | Bone Mean ([2]; time 31.5 min): 0.96 % ID/g | Brain Mean ([2]; time 31.5 min): 1.09 % ID/g | Muscle Mean ([2]; time 31.5 min): 0.99 % ID/g | Bone Mean ([2]; time 32.5 min): 0.85 % ID/g | Brain Mean ([2]; time 32.5 min): 1.07 % ID/g | Muscle Mean ([2]; time 32.5 min): 0.89 % ID/g | Bone Mean ([2]; time 33.5 min): 0.95 % ID/g | Brain Mean ([2]; time 33.5 min): 1.04 % ID/g | Muscle Mean ([2]; time 33.5 min): 0.93 % ID/g | Brain Mean ([2]; time 34.5 min): 1.04 % ID/g | peak brain uptake ([2]; 90 min scans, 2.5 min post injection): 3.4 % ID/g | brain uptake after wash out ([2]; 90 min scans, by 59.5 min): 0.6 % ID/g | peak brain uptake ([2]; WT mice, approximately 2.5 min post injection): 4.1±0.3 % ID/g | brain uptake after steady clearance of tracer ([2]; WT mice, by 60 minutes): 0.8±0.1 % ID/g | Bone uptake throughout the scan period ([2]; consistent with an absence of defluorination): remained low | crossing of the blood-brain-barrier ([2]; dynamic PET imaging in mice): readily crosses the blood-brain-barrier | peak brain uptake ([2]; four 60-minute PET scans, 2.5 min post injection): 4.1 % ID/g | brain uptake after steady clearance of tracer ([2]; four 60-minute PET scans, at 59.5 min): 0.8 % ID/g
SMILES: O=C(NCc1ccc(-c2nncnn2)cc1)c1ccc([18F])cc1 [[^18F]—N-(4-(1,2,4,5-tetrazin-3-yl)benzyl)-4-fluorobenzamide]
Uptake throughout the body ([2]; 60-minute PET scans): observed throughout the body in organs such as the liver, kidneys and heart
